Our source for the IC50 values is ChEMBL document CHEMBL4680094, “Insights of a Lead Optimization Study and Biological Evaluation of Novel 4-Hydroxytamoxifen Analogs as Estrogen-Related Receptor γ (ERRγ) Inverse Agonists” (J Med Chem, 2016).

A value given as a limit tells only on which side of the number the result lay.

One experiment concerns the target T1, Estrogen receptor (Homo sapiens, UniProt P03372).
T1 sequence (P03372 whole entry): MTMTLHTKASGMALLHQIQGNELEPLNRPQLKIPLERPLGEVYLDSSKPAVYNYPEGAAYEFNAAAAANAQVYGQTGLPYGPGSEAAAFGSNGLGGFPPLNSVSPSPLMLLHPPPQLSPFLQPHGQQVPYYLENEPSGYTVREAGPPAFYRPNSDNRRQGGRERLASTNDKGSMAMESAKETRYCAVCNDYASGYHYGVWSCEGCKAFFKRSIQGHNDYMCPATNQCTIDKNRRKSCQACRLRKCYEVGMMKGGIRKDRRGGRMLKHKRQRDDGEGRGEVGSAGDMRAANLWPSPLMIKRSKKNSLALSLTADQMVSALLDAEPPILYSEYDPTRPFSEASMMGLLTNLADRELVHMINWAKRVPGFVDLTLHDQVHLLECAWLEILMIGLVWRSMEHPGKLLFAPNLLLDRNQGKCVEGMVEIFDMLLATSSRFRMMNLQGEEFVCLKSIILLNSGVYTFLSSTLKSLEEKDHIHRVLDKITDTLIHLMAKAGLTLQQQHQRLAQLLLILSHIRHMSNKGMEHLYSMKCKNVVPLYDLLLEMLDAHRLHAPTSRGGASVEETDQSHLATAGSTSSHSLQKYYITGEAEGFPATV
The experiment in a line: Binding affinity to GST-tagged ERalpha LBD (unknown origin) using fluorescein PGC1alpha as coactivator incubated for 1 hr by LanthaScreen TR-FRET co-regulator assay.

Experiment [1] deals with T2, Steroid hormone receptor ERR2 (Homo sapiens, UniProt O95718).
T2 sequence (O95718 whole entry): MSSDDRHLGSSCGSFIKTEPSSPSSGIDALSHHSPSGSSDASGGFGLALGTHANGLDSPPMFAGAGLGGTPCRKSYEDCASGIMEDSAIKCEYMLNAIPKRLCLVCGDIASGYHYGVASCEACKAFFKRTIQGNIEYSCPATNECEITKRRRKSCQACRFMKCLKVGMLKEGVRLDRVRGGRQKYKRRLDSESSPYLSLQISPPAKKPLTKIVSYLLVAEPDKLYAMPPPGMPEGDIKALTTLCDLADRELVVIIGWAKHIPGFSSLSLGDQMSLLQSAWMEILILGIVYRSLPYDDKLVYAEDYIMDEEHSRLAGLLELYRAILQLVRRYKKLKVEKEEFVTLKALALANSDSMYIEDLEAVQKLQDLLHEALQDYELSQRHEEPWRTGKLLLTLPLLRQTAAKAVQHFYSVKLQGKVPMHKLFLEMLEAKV
Put plainly: Binding affinity to GST-tagged ERRbeta LBD (unknown origin) using fluorescein PGC1alpha as coactivator incubated for 1 hr by LanthaScreen TR-FRET co-regulator assay.

In experiment [2] the target is T3, Steroid hormone receptor ERR1 (Homo sapiens, UniProt P11474).
T3 sequence (P11474 whole entry): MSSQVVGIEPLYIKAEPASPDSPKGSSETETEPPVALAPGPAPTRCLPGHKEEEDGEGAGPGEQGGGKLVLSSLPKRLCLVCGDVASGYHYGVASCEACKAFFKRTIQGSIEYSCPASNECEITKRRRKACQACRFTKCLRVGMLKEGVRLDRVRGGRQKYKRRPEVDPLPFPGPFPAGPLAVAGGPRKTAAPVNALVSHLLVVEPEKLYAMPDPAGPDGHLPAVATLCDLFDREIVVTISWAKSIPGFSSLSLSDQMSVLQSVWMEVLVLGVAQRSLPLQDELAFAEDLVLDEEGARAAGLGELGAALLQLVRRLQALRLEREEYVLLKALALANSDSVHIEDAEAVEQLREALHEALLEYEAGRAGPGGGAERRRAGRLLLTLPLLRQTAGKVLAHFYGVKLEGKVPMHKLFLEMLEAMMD
Put plainly: Binding affinity to GST-tagged ERRalpha LBD (unknown origin) using fluorescein PGC1alpha as coactivator incubated for 1 hr by LanthaScreen TR-FRET co-regulator assay. (TR-FRET usually uses a lanthanide donor and a delayed reading to cut background.)

The target in experiment [3] is T4, Estrogen-related receptor gamma (Homo sapiens, UniProt P62508).
T4 sequence (P62508 whole entry): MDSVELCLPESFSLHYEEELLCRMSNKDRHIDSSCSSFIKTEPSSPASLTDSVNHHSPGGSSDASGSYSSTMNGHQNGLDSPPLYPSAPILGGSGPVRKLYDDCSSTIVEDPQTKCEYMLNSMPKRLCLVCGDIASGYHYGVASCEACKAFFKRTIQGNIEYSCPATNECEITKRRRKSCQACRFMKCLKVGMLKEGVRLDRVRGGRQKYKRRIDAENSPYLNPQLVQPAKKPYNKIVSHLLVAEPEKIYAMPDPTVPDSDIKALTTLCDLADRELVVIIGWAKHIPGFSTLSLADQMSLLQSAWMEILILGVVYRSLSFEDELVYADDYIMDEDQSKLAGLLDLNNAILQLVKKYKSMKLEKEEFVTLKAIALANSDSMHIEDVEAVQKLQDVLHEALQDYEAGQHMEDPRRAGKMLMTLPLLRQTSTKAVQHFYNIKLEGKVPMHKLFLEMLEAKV

Usually IC50 stands for the concentration that inhibits the measured activity by half. A lower IC50 goes with higher potency. As for `OCCC/C(=C(\c1ccc(O)cc1)c1ccc(OCCN2CCCC2)cc1)c1ccccc1`, the results for the 50% inhibitory concentration (IC50) (at Estrogen receptor; in experiment [1]; in experiment [2]) were 649 nM, over 10000 nM and over 10000 nM, respectively. For the molecule `OCCC/C(=C(\c1ccc(O)cc1)c1ccc(NCCN2CCCCC2)cc1)c1ccccc1`, the midpoint of inhibition in experiment [3], the IC50, lay at 1550 nM. On the same count and under the same terms, the result for `OCCC/C(=C(\c1ccc(O)cc1)c1ccc2oc(CCN3CCNCC3)cc2c1)c1ccccc1` reads 894 nM. Molecule `CN1C[C@@H]1CCCOc1ccc(/C(=C(/CCCO)c2ccccc2)c2ccc(O)cc2)cc1` (stereo not given in full) returned a half-maximal inhibitory concentration (IC50) in experiment [3] of 1090 nM. In the case of `CN1CCN(Cc2ccc(/C(=C(/CCCO)c3ccccc3)c3ccc(O)cc3)cc2)CC1`, the IC50 in experiment [3] stood at 2340 nM. Take `O=C(CN1C[C@H]2CNC[C@H]2C1)Nc1ccc(/C(=C(/CCCO)c2ccccc2)c2ccc(O)cc2)cc1`: in experiment [3], 7420 nM corresponded to half-maximal inhibition (IC50). On the same count and under the same terms, then `O=[N+]([O-])c1ccc(/C(=C(\CCCO)c2ccccc2)c2ccc(N3CCC4(CCNC4)C3)cc2)cc1` (stereo not given), with 8230 nM.

`CN1CCC[C@@H]1CCOc1ccc(/C(=C(/CCCO)c2ccccc2)c2ccc(O)cc2)cc1`: the values for the IC50 (on Estrogen receptor; in experiment [1]; in experiment [2]) were 784 nM, over 10000 nM and over 10000 nM, respectively. As for `CN1CCN(C[Si](C)(C)c2ccc(/C(=C(/CCCO)c3ccccc3)c3ccc(O)cc3)cc2)CC1`, the concentration for half-maximal inhibition (IC50) in experiment [3] is 1260 nM. Consider `CN1CCN(Cc2ccc(/C(=C(/CCCO)c3ccccc3)c3ccc([N+](=O)[O-])cc3)cc2)CC1`, for which the IC50 in experiment [3] is over 10000 nM. With `CN1C[C@H]1CCCOc1ccc(/C(=C(/CCCO)c2ccccc2)c2ccc(O)cc2)cc1` (stereo not given in full), in experiment [3], half-maximal inhibition (IC50) was put at 784 nM. In experiment [3], `Cc1ccc(/C(=C(\CCCO)c2ccccc2)c2ccc3oc(CCN4CCNCC4)cc3c2)cc1` yielded an IC50 of 2130 nM. For the molecule `C[Si](C)(CN1CCCC1)c1ccc(/C(=C(/CCCO)c2ccccc2)c2ccc(O)cc2)cc1`, the IC50 in experiment [3] is 813 nM; at Estrogen receptor it was over 10000 nM; in experiment [1], over 10000 nM; in experiment [2], over 10000 nM.

As for `OCCC/C(=C(\c1ccc(O)cc1)c1ccc(OCCN2CCC3(CCNC3)C2)cc1)c1ccccc1` (stereo not given), the IC50 in experiment [3] was 326 nM; at Estrogen receptor it was 5600 nM; in experiment [1] it was over 10000 nM; in experiment [2], over 10000 nM. For `O=C(Nc1ccc(/C(=C(/CCCO)c2ccccc2)c2ccc(O)cc2)cc1)C1CCCN1` (stereo not given), the IC50 in experiment [3] is over 10000 nM. In experiment [3], `C[Si](C)(CN1CCNCC1)c1ccc(/C(=C(/CCCO)c2ccccc2)c2ccc(O)cc2)cc1` yielded an IC50 of 1280 nM. Still for that read-out and setting: then `OCCC/C(=C(\c1ccc(O)cc1)c1ccc(N2CCOCC2)cc1)c1ccccc1`, with 2230 nM. Molecule `CN1C[C@@H]1CCCOc1ccc(/C(=C(/CCCO)c2ccccc2)c2ccc(Br)cc2)cc1` (stereo not given in full) displayed an IC50 in experiment [3] of 1660 nM. As to `OCCC/C(=C(\c1ccc(Br)cc1)c1ccc(OCCN2CC2)cc1)c1ccccc1`, in experiment [3], it took 1520 nM to reach half-maximal inhibition (IC50). Consider `C[Si](C)(CN1CCCCC1)c1ccc(/C(=C(/CCCO)c2ccccc2)c2ccc(O)cc2)cc1`, for which the 50% inhibitory concentration (IC50) is 248 nM in experiment [3], 4360 nM at Estrogen receptor, over 10000 nM in experiment [1] and over 10000 nM in experiment [2]. In the case of `OCCC/C(=C(\c1ccc(O)cc1)c1ccc2c(c1)CCN2CCN1CCCC1)c1ccccc1`, the IC50 in experiment [3] worked out at 8020 nM. In experiment [3], `CC(C)(C)OC(=O)N1CCC(n2cc(/C(=C(/CCCO)c3ccccc3)c3ccc(O)cc3)cn2)CC1` yielded a half-inhibitory concentration (IC50) of over 10000 nM. The molecule `OCCC/C(=C(\c1ccc(O)cc1)c1ccc(OCCN2C[C@H]3C[C@H]3[C@H]2CO)cc1)c1ccccc1` had a 50% inhibitory concentration (IC50) in experiment [2] of over 10000 nM. Consider `OCCC/C(=C(\c1ccc(O)cc1)c1ccc(OCCN2CC2)cc1)c1ccccc1`, for which the figures for the IC50 in experiment [3], in experiment [1] and in experiment [2] were 70 nM, 3720 nM and over 10000 nM, respectively.

`CN(C)CCn1cc(-c2ccc(/C(=C(/CCCO)c3ccccc3)c3ccc(O)cc3)cc2)nn1` showed an IC50 in experiment [3] of 6300 nM. The molecule `C[Si](C)(CN1C[C@H]2CNC[C@H]2C1)c1ccc(/C(=C(/CCCO)c2ccccc2)c2ccc(O)cc2)cc1` gave an IC50 in experiment [3] of 460 nM.

On to `OCCC/C(=C(\c1ccc(O)cc1)c1ccc(OCCN2CCC[C@@H]2CO)cc1)c1ccccc1`, for which the IC50 in experiment [1] and in experiment [2] was over 10000 nM in each case.

In the case of `O=C(CN1CCCCC1)Nc1ccc(/C(=C(/CCCO)c2ccccc2)c2ccc(O)cc2)cc1`, it took 2780 nM to reach half-maximal inhibition in experiment [3] (IC50).

`CN1CCC[C@H]1CCOc1ccc(/C(=C(/CCCO)c2ccccc2)c2ccc(O)cc2)cc1`: the 50% inhibitory concentration (IC50) at Estrogen receptor was 724 nM; in experiment [1] it was 8590 nM; in experiment [2] it was over 10000 nM.

On to `OCCC/C(=C(\c1ccc(O)cc1)c1ccc2c(ccn2CCN2CCCCC2)c1)c1ccccc1`, for which, in experiment [3], the concentration for half-maximal inhibition (IC50) is 3610 nM. Turning to `OCCC/C(=C(\c1ccc(O)cc1)c1ccc2oc(CCN3CCCCC3)cc2c1)c1ccccc1`, the IC50 in experiment [3] was 268 nM; on Estrogen receptor, 660 nM; in experiment [1], over 10000 nM; in experiment [2] it was over 10000 nM. Regarding `OCCC/C(=C(\c1ccc(O)cc1)c1ccc(OCCN2C[C@H]3CNC[C@H]3C2)cc1)c1ccccc1`, the IC50 in experiment [3] is 165 nM; at Estrogen receptor, 407 nM; in experiment [1] it was over 10000 nM; in experiment [2] it was over 10000 nM. Consider `OCCC/C(=C(\c1ccc(Br)cc1)c1ccc(CN2CCCCC2)cc1)c1ccccc1`, for which inhibition in experiment [3] was half-maximal at 2300 nM (IC50). Take `OCCC/C(=C(\c1ccc(O)cc1)c1ccc(OCCN2CC3CC3C2)cc1)c1ccccc1` (stereo not given): in experiment [2], the 50% inhibitory concentration (IC50) is over 10000 nM.

For the molecule `CN1CCN(CCOc2ccc(/C(=C(/CCCO)c3ccccc3)c3ccc(O)cc3)cc2)CC1`, the half-inhibitory concentration (IC50) in experiment [3] was 2200 nM. For the molecule `OCCC/C(=C(\c1ccc(O)cc1)c1ccc(OCCN2CCNCC2)cc1)c1ccccc1`, half-maximal inhibition in experiment [3] (IC50) was put at 1040 nM.
